Reference: patent US8633251B2, “Derivatives of aminoalkanols, method of obtaining of aminoalkanols and their use” (Uniwersytet Jagiellonski, priority 2008, dated 2014)
Where a name gives a salt, the structure may show the parent alone.

How the values were obtained:
[1] = test system: neurotoxicity (rotarod); assay: Neurotoxicity test (TOX), rotarod, mice; assay type: in vivo
Description: (§1) In order to define anticonvulsant activity, screening tests were performed, using animal models of seizures. […] Each substance (after dissolving in methylcellulose) was normally tested in doses 30, 100, and 300 mg/kg body weight (b.w.) (mice) or in 30 and 50 mg/kg b.w. (rats) in two possible routes of administration: intraperitoneal (i.p.) or oral (p.o.). Appropriate tests were performed 0.5 and 4 h after administration of the compound. […] (mice) the tests were also performed in doses 10 and 3 mg/kg b.w.
It is performed with use of rotarod test. The animal is placed on a plastic rod (1 inch in diameter), rotating 6 rpm. The rod is placed on a level discouraging the animal to jump off. […] Neurotoxicity is stated if the animal cannot stay on the rod for 1 min. in any of 3 trials. Normally the test is performed in dose 30 mg/kg b.w. in 4 mice (0.5 h) and in 2 mice (4 h), in the dose 100 mg/kg b.w. in 8 mice (0.5 h) and in 4 mice (4 h) and in the dose 300 mg/kg b.w. in 4 mice (0.5 h) and 2 mice (4 h).

[2] = test system: maximal electroshock seizures; assay: Maximum Electroshock Seizure (MES) test, mice; assay type: in vivo; details: for MES, No. of protected animals/No. of used animals: mice, time 0.5 h
Description: as §1
Maximum Electroshock Seizure (MES) test is an electric test, verifying activity towards generalized tonic-clonic seizures (grand mal epilepsy). […] Its procedure consists in administration to an animal a mentioned dose, and after 0.5 or 4 h attaching corneal electrodes (after anesthetic eye-drops: 0.5% tetracaine hydrochloride in 0.9% NaCl) and turning on electric current (60 Hz, 0.2 s, 50 mA (mice) or 150 mA (rats)). […] Normally, in the dose 30 mg/kg b.w. the test is done in 1 mouse after 0.5 or 4 h, in the dose 100 mg/kg b.w.—in 3 mice, and in the dose 300 mg/kg b.w.—in 1 mouse.

[3] = mice, dose 300 mg/kg b.w., time 4 h
[4] = mice, dose 30 mg/kg b.w., time 0.5 h
[5] = mice, dose 300 mg/kg b.w., time 0.5 h
[6] = Mus musculus, 0.5 h, read-out: MES, No. of protected animals/No. of used animals
[7] = mice, dose 100 mg/kg b.w., time 0.5 h

SMILES	MES, No. of protected animals/No. of used animals ([2]; dose 100 mg/kg b.w.)	MES, No. of protected animals/No. of used animals ([2]; dose 30 mg/kg b.w.)	TOX, No. of animals exhibiting motor impairment/no. of used animals [1, 5]	TOX, No. of animals exhibiting motor impairment/no. of used animals [1, 7]	further results
Cc1ccc(C)c(OCCNC(C)CO)c1 (stereo not drawn) [Compound 6, R,S-2N-[(2,5-dimethylphenoxy)ethyl]amino-1-propanol]	3/3				TOX, No. of animals exhibiting motor impairment/no. of used animals ([1]; mouse, in vivo, 300 mg/kg): 4/4; MES, No. of protected animals/No. of used animals ([2]; dose 300 mg/kg b.w.): 1/1
CCC(O)CNCCOc1cc(C)ccc1C (stereo not drawn) [Compound 7, R,S-1N-[(2,5-dimethylphenoxy)ethyl]amino-2-butanol]	3/3				TOX, No. of animals exhibiting motor impairment/no. of used animals ([1]; mouse, in vivo, 100 mg/kg): 8/8; TOX, No. of animals exhibiting motor impairment/no. of used animals ([1]; mouse, in vivo, 300 mg/kg): 4/4; MES, No. of protected animals/No. of used animals ([2]; dose 300 mg/kg b.w.): 1/1
CCC(CO)NCCOc1cc(C)ccc1C (stereo not drawn) [Compound 8, R,S-2N-[(2,5-dimethylphenoxy)ethyl]amino-1-butanol]	3/3				TOX, No. of animals exhibiting motor impairment/no. of used animals ([1]; mouse, in vivo, 100 mg/kg): 8/8; TOX, No. of animals exhibiting motor impairment/no. of used animals ([1]; mouse, in vivo, 300 mg/kg): 4/4
Cc1cccc(C)c1OCCNC(C)CO.Cl (stereo not drawn) [Compound 11a, R,S-2N-[(2,6-dimethylphenoxy)ethyl]amino-1-propanol hydrochloride]	1/1	1/1			TOX, No. of animals exhibiting motor impairment/no. of used animals ([1]; mouse, in vivo, 30 mg/kg): 3/4; TOX, No. of animals exhibiting motor impairment/no. of used animals ([1]; mouse, in vivo, 100 mg/kg): 8/8; TOX, No. of animals exhibiting motor impairment/no. of used animals ([1]; mouse, in vivo, 300 mg/kg): 4/4
Cc1cccc(C)c1OCCN[C@H](C)CO [Compound 12a, R-(−)-2N-[(2,6-dimethylphenoxy)ethyl]amino-1-propanol hydrochloride]					TOX, No. of animals exhibiting motor impairment/no. of used animals [1, 3]: 1/1; MES, No. of protected animals/No. of used animals ([2]; dose 100 mg/kg b.w., hydrochloride, 100 mg/kg): 3/3
Cc1cccc(C)c1OCCN[C@@H](C)CO.Cl [Compound 13a, S-(+)-2N-[(2,6-dimethylphenoxy)ethyl]amino-1-propanol hydrochloride]	3/3	1/1			TOX, No. of animals exhibiting motor impairment/no. of used animals ([1]; mouse, in vivo, 100 mg/kg): 8/8; TOX, No. of animals exhibiting motor impairment/no. of used animals ([1]; mouse, in vivo, 300 mg/kg): 4/4
Cc1cccc(C)c1OCCNC(C)(C)CCO [Compound 15, 3N-[(2,6-dimethylphenoxy)ethyl]amino-3-methyl-1-butanol hydrochloride]			7/8		TOX, No. of animals exhibiting motor impairment/no. of used animals ([1]; mice, dose 10 mg/kg b.w., time 0.5 h): 7/8; TOX, No. of animals exhibiting motor impairment/no. of used animals [1, 4]: 4/4; responders at 10 mg/kg [2, 6]: 100%; responders at 300 mg/kg [2, 6]: 100%
Cc1cccc(C)c1OCCN[C@H](CO)C(C)C [Compound 16, L-2N-[(2,6-dimethylphenoxy)ethyl]amino-3-methyl-1-butanol hydrochloride]			4/4	7/8	responders at 100 mg/kg [2, 6]: 100%
Cc1cccc(C)c1OCCNCCCCCO [Compound 17, 5N-[(2,6-dimethylphenoxy)ethyl]amino-1-pentanol hydrochloride]			4/4	7/8	TOX, No. of animals exhibiting motor impairment/no. of used animals [1, 3]: 1/1; responders at 100 mg/kg [2, 6]: 100%
Cc1cccc(C)c1OCCNCC(O)c1ccccc1 (stereo not drawn) [Compound 19, R,S-2N-[(2,6-dimethylphenoxy)ethyl]amino-1-phenylethanol]	3/3	1/1	4/4	8/8	TOX, No. of animals exhibiting motor impairment/no. of used animals [1, 4]: 1/4
Cc1cccc(C)c1OCCNC[C@@H](O)c1ccccc1 [Compound 21, S-(+)-2N-[(2,6-dimethylphenoxy)ethyl]amino-1-phenylethanol]	3/3	1/1	4/4	7/8	
Cc1cccc(Cl)c1OCCNC(C)CO (stereo not drawn) [Compound 24, R,S-2N-[(2-chlor-6-methylphenoxy)ethyl]amino-1-propanol]	3/3		4/4	5/8	
CCC(O)CNCCOc1c(C)cccc1Cl (stereo not drawn) [Compound 25, R,S-1N-[(2-chlor-6-methylphenoxy)ethyl]amino-2-butanol]		1/1	4/4	8/8	
CCC(CO)NCCOc1c(C)cccc1Cl.Cl (stereo not drawn) [Compound 26a, R,S-2N-[(2-chlor-6-methylphenoxy)ethyl]amino-1-butanol hydrochloride]	1/1	1/1	4/4	8/8	TOX, No. of animals exhibiting motor impairment/no. of used animals [1, 4]: 3/4; TOX, No. of animals exhibiting motor impairment/no. of used animals ([1]; mice, dose 100 mg/kg b.w., time 4 h): 1/4
CC[C@H](CO)NCCOc1c(C)cccc1Cl.Cl [Compound 27a, R-(−)-2N-[(2-chlor-6-methylphenoxy)ethyl]amino-1-butanol hydrochloride]	2/3	1/1	4/4	7/8	
CC[C@@H](CO)NCCOc1c(C)cccc1Cl.Cl [Compound 28a, S-(+)-2N-[(2-chlor-6-methylphenoxy)ethyl]amino-1-butanol hydrochloride]	1/1		4/4	5/8	
Cc1cccc(Cl)c1OCCNC(C)(CO)CO [Compound 29, 2N-[(2-chlor-6-methylphenoxy)ethyl]amino-2-methyl-1,3-propandiol]	2/3				TOX, No. of animals exhibiting motor impairment/no. of used animals ([1]; mouse, in vivo, 100 mg/kg): 4/8; TOX, No. of animals exhibiting motor impairment/no. of used animals ([1]; mouse, in vivo, 300 mg/kg): 4/4
Cc1cccc(Cl)c1OCCNCC(O)c1ccccc1 (stereo not drawn) [Compound 31, R,S-2N-[(2-chlor-6-methylphenoxy)ethyl]amino-1-phenylethanol]	3/3	1/1	4/4	8/8	MES, No. of protected animals/No. of used animals ([2]; dose 300 mg/kg b.w.): 1/1
CCC(O)CNCCOc1ccc(Cl)cc1C (stereo not drawn) [Compound 34, R,S-1N-[(4-chlor-2-methylphenoxy)ethyl]amino-2-butanol]	3/3		4/4	7/8	TOX, No. of animals exhibiting motor impairment/no. of used animals [1, 4]: 1/4
CCC(CO)NCCOc1ccc(Cl)cc1C (stereo not drawn) [Compound 35, R,S-2N-[(4-chlor-2-methylphenoxy)ethyl]amino-1-butanol]	3/3		4/4	8/8	
Cc1cc(Cl)ccc1OCCNC(C)(C)CO [Compound 36, 2N-[(4-chlor-2-methylphenoxy)ethyl]amino-2-methyl-1-propanol]	3/3		4/4		
